According to patent US11576891B2, “Methods of treating or preventing estrogen-related diseases” (ENDORECHERCHE, INC., priority 2010, dated 2023):
Entries after “also recorded” stand apart in the source; their conditions may differ. Marks after values point to notes of the source that are not given here.

Columns and labels:
[1] = system: human endometrial Ishikawa carcinoma cells; settings: cited from earlier work
ovariectomized rats = experiment: bone histomorphometry after 12-month treatment of ovariectomized rats; type: in vivo, rat; settings: 12 months
Method: (§1) FIG. 6 is a bar graph comparing the effect of 12-month treatment with dehydroepiandrosterone (DHEA) alone or in combination with Flutamide or EM-800 on trabecular bone volume in ovariectomized rats. Intact animals are added as additional controls. Data are presented as mean±SEM **p<0.01 versus OVX Control.
as §1, with “7” for “6”, “number of” for “bone volume in”
Note the reduced amount of trabecular bone (T) in ovariectomized control animals (B), and the significant increase in trabecular bone volume (T) induced after DHEA administration (C). […] Modified trichrome Masson-Goldner, magn.×80. T: Trabeculae, GP: Growth Plate.
Importantly, the combination of EM-800 and DHEA in ovariectomized rats treated for 12 months had beneficial effects on bone morphometry. Trabecular bone volume is particularly important for bone strength and to prevent bone fractures.

rat = experiment: biochemical parameters of bone metabolism in rats treated with DHEA and/or EM-800; type: in vivo; settings: for SERUM TALP (alkaline phosphatase) / URINE CALCIUM / URINE HP/Cr (hydroxyproline/creatinine ratio) / URINE PHOSPHORUS: DHEA 10 mg percutaneously, EM-800 75 μg orally, once daily; for decrease of urinary hydroxyproline/creatinine ratio, marker of bone resorption / increase of serum alkaline phosphatase activity, marker of bone formation: versus control
Description: Data are expressed as the means±SEM. **: P<0.01 experimental versus respective control.
It is particularly important to indicate that the combination of DHEA and EM-800 exerts unexpected beneficial effects on important biochemical parameters of bone metabolism. […] Moreover, no effect of DHEA alone could be detected on daily urinary calcium or phosphorus excretion (Luo, Sourla et al. 1997). EM-800, on the other hand, decreased the urinary hydroxyproline/creatinine ratio by 48% while, similarly to DHEA, no effect of EM-800 was seen on urinary calcium or phosphorus excretion. EM-800, moreover, had no effect on serum alkaline phosphatase activity, a marker of bone formation while DHEA increased the value of the parameter by about 75% (Luo, Sourla et al. 1997) (Table 2).
Thus, the addition of DHEA to EM-800 increases by 50% of the inhibitory effect of EM-800 on bone reabsorption.

60- to 70-year-old women = settings: cited from earlier work
[2] = system: postmenopausal women suffering from vaginal atrophy; settings: daily intravaginal, 3 months; cited from earlier work
solid state stability = type: physicochemical
ovariectomized rat = settings: rat after ovariectomy; cited from earlier work
postmenopausal women = experiment: serum lipids in postmenopausal women given oral EM-800; type: in vivo, human

SMILES: COc1ccc(-c2sc3cc(O)ccc3c2Oc2ccc(OCCN3CCCCC3)cc2)cc1.Cl [Arzoxifene, 6-hydroxy-3-[4-[2-(1-piperidinyl)ethoxy]phenoxyl]-2-(4-methoxyphenyl)benzo[b]thiophene hydrochloride]
- effect on estrogen-sensitive parameter alkaline phosphatase [1]: stimulate, to various degrees

SMILES: C[C@]12CC[C@H](O)CC1=CC[C@@H]1[C@@H]2CC[C@]2(C)C(=O)CC[C@@H]12 [DHEA, dehydroepiandrosterone]
- increase in trabecular bone number compared to ovariectomized controls (ovariectomized rats): 137%
- trabecular bone number (ovariectomized rats): 1.27±0.1 per mm
- trabecular bone volume of the tibia (ovariectomized rats): 11.9±0.6%
- effect on daily urinary calcium or phosphorus excretion (rat): no effect
- SERUM TALP (alkaline phosphatase) (rat): 198.38 ± 30.76* IU/L
- URINE CALCIUM (rat): 25.87 ± 3.54 μmol/24 h/100 g
- URINE HP/Cr (hydroxyproline/creatinine ratio) (rat): 14.02 ± 1.59 μmol/mmol
- URINE PHOSPHORUS (rat): 151.41 ± 14.57 μmol/24 h/100 g
- decrease of urinary hydroxyproline/creatinine ratio, marker of bone resorption (rat): did not affect; also recorded: did not show any effect
- increase of serum alkaline phosphatase activity, marker of bone formation (rat): about 75%
- abdominal fat measurements (60- to 70-year-old women; 12 months): no significant change
- body weight (60- to 70-year-old women; 12 months): no change
- decrease in fasting plasma insulin levels (60- to 70-year-old women; 12 months): 17%
- decrease in plasma bone alkaline phosphatase (60- to 70-year-old women; 12 months): 22%
- decrease in subcutaneous skin fold thickness (60- to 70-year-old women; 12 months): 9.8%
- decrease in urinary hydroxyproline (60- to 70-year-old women; 12 months): 38%
- decrease of fasting plasma glucose (60- to 70-year-old women; 12 months): 12%
- decrease of femoral fat (midthigh, computed tomography) (60- to 70-year-old women; 12 months): 3.8%
- increase in bone mass density at the hip (60- to 70-year-old women; 12 months): 2.3%
- increase in bone mass density at the hip Ward's triangle (60- to 70-year-old women; 12 months): 3.75%
- increase in bone mass density at the lumbar spine level (60- to 70-year-old women; 12 months): 2.2%
- increase in femoral muscular area (midthigh, computed tomography) (60- to 70-year-old women; 12 months): 3.5%
- increase over control in plasma osteocalcin (60- to 70-year-old women; 12 months): 135%
- plasma triglycerides (60- to 70-year-old women; 12 months): not affected
- endometrium histology (60- to 70-year-old women; after 12 months, all women): remained completely atrophic
- increase in index of sebum secretion (60- to 70-year-old women; after 12 months): 79%
- women with stimulated vaginal epithelium maturation (60- to 70-year-old women; women with a maturation value of zero at onset of therapy): 8 out of 10
- circulating estradiol or testosterone [2]: no change
- domains of sexual dysfunction (desire, arousal, orgasm and pleasure) [2]: significant improvement
- symptoms and signs of vaginal atrophy [2]: rapid and very marked improvement

SMILES: CC/C(=C(/c1ccc(OCCN(C)C)cc1)c1cccc(O)c1)c1ccccc1 [Droloxifene, (E)-3-[1-[4-[2-(Dimethylamino)ethoxy]phenyl]-2-phenyl-1-butenyl]phenol]
- effect on estrogen-sensitive parameter alkaline phosphatase [1]: stimulate, to various degrees

SMILES: CC/C(=C(\c1ccccc1)c1ccc(OCCN(C)C)cc1)c1ccccc1 [Tamoxifen, (Z)-2-[4-(1,2-diphenyl-1-butenyl)phenoxy]-N,N-dimethylethanamine]
- effect on estrogen-sensitive parameter alkaline phosphatase [1]: stimulate, to various degrees

SMILES: CC1=C(c2ccc(O)cc2)[C@H](c2ccc(OCCN3CCCCC3)cc2)Oc2cc(O)ccc21.Cl [EM-652.HCl, (S)-(+)-7-hydroxy-3-(4′-hydroxyphenyl)-4-methyl-2-(4″-(2′″-piperidinoethoxy)phenyl)-2H-1 benzopyran hydrochloride]
- solid state stability (solid state stability): good solid state stability

SMILES: Cl.O=C(c1ccc(OCCN2CCCCC2)cc1)c1c(-c2ccc(O)cc2)sc2cc(O)ccc12 [Raloxifene, [2-(4-hydroxyphenyl)-6-hydroxybenzo[b]thien-3-yl][4-[2-(1-piperidinyl)ethoxy]phenyl]-methanone hydrochloride]
- effect on estrogen-sensitive parameter alkaline phosphatase [1]: stimulate, to various degrees
- dose at which maximal effect on bone resorption is achieved (ovariectomized rat): 0.1 mg/kg

SMILES: CN(C)CCOc1ccc(/C(=C(/CCCl)c2ccccc2)c2ccccc2)cc1 [Toremifene, (Z)-2-[4-(4-Chloro-1,2-diphenyl-1-butenyl)phenoxy]-N,N-dimethylethanamine]
- effect on estrogen-sensitive parameter alkaline phosphatase [1]: stimulate, to various degrees

SMILES: CC1=C(c2ccc(OC(=O)C(C)(C)C)cc2)[C@H](c2ccc(OCCN3CCCCC3)cc2)Oc2cc(OC(=O)C(C)(C)C)ccc21 [EM-800, (S)-(+)-4-[7-(2,2-dimethyl-1-oxopropoxy)-4-methyl-2-[4-[2-(1-piperidinyl)-ethoxy]phenyl]-2H-1-benzopyran-3-yl]-phenyl 2,2-dimethylpropanoate]
- decrease in total serum cholesterol (postmenopausal women; daily oral dose of 5, 10, 20 and 40 mg for 2 weeks): 10%
- decrease in serum triglyceride levels (postmenopausal women; daily oral dose of 5, 10, 20 and 40 mg, at 1 week): 15%
- antiestrogenic activity in Ishikawa cells [1]: pure antiestrogenic activity
- effect on daily urinary calcium or phosphorus excretion (rat): no effect
- SERUM TALP (alkaline phosphatase) (rat): 114.11 ± 11.26 IU/L
- URINE CALCIUM (rat): 17.44 ± 4.5 μmol/24 h/100 g
- URINE HP/Cr (hydroxyproline/creatinine ratio) (rat): 6.81 ± 0.84** μmol/mmol
- URINE PHOSPHORUS (rat): 102.03 ± 25.13 μmol/24 h/100 g
- decrease of urinary hydroxyproline/creatinine ratio, marker of bone resorption (rat): 48%
- increase of serum alkaline phosphatase activity, marker of bone formation (rat): no effect
- dose at which maximal effect on bone resorption is achieved (ovariectomized rat): 0.01 mg/kg

SMILES: CC/C(=C(\c1ccc(I)cc1)c1ccc(OCCN2CCCC2)cc1)c1ccccc1 [Idoxifene, (E)-1-[2-[4-[1-(4-Iodophenyl)-2-phenyl-1-butenyl]phenoxy]ethyl]pyrrolidine]
- effect on estrogen-sensitive parameter alkaline phosphatase [1]: stimulate, to various degrees

SMILES: OCCOc1ccc(/C(=C(/CCCl)c2ccccc2)c2ccccc2)cc1 [Ospemifene, (Z)-2-[4-(4-chloro-1,2-diphenyl-1-butenyl)phenoxyl]ethanol]
- effect on estrogen-sensitive parameter alkaline phosphatase [1]: stimulate, to various degrees
